We go through one molecule from article PMC5206724, “Insensitivity to pain induced by a potent selective closed-state Nav1.7 inhibitor” (Scientific Reports, 2017).

The structures appear in SMILES notation. Like-named read-outs stand apart in the source and are kept apart here.

The target of one data set is hNav1.1 (Homo sapiens, UniProt P35498). Briefly: cell-based. The following applies: QPatch; read-out: Fitted Emax hNav1.1. A general note: In patch-clamp work, channel activity is measured electrically.
The target in another data set is hNav1.2 (Homo sapiens, UniProt Q99250). Briefly: cell-based. The note with it: QPatch; read-out: Fitted Emax hNav1.2.
Another data set deals with hNav1.3 (Homo sapiens, UniProt Q9NY46). Nature of the data set: cell-based. The note with it: QPatch; read-out: Fitted Emax hNav1.3.
The next data set has as its target hNav1.4 (Homo sapiens, UniProt P35499). Briefly: cell-based. The note with it: QPatch; read-out: Fitted Emax hNav1.4.
For a further data set, the target named is hNav1.5 (Homo sapiens, UniProt Q14524). Briefly: cell-based. The note with it: QPatch; read-out: Fitted Emax hNav1.5.
The target of another data set is hNav1.6 (Homo sapiens, UniProt Q9UQD0). Nature of the data set: cell-based. The note with it: QPatch.
For data set [1] the following is noted: in words. The text has this: Rats ~250–300 g were placed under Isoflurane anesthesia (4% for induction, 2% for maintenance). A single hip and proximal hind-leg area were shaved and the injection area prepped with alternating applications of chlorhexidine 2% soln. and isopropyl alcohol 70%. A pelvic notch just distal to the greater trochanter was located with palpation and a starter hole was made through the dermis using a 20G hypodermic needle. A 22G nerve stimulating injection needle (ProBloc II, cat#HN3S-40, Halyard Health) connected to a peripheral nerve stimulation device (EZstim II model ES400, Life-Tech, Inc.) was placed into the starter hole. The nerve stimulator was set to 0.7 mA and the injection needle was gently advanced in a line parallel to the femur until localized dorsal or plantar flexion of the foot was observed. Generalized muscle twitching involving primary twitching on the quadriceps muscle was considered a negative response and the needle was carefully re-positioned until the appropriate localized foot flicking was observed. […] The device was increased back to 0.2 mA and if twitching was still observed, the 100 μL injection was given.

For data set [2] the following is noted: for abnormal proprioception of hind paws / abnormal stepping / flaccidity / hindlimb weakness: baseline 0/7.
The mark [3] stands for this setting: 2 μg/10 μl IT, 30 min post dosing.
Where [4] appears, read: 2 μg/10 μl IT, 90 min post dosing.
Where [5] appears, read: 2 μg/10 μl IT, formalin study, in words.

Chain of hNav1.6 (Q9UQD0 whole entry): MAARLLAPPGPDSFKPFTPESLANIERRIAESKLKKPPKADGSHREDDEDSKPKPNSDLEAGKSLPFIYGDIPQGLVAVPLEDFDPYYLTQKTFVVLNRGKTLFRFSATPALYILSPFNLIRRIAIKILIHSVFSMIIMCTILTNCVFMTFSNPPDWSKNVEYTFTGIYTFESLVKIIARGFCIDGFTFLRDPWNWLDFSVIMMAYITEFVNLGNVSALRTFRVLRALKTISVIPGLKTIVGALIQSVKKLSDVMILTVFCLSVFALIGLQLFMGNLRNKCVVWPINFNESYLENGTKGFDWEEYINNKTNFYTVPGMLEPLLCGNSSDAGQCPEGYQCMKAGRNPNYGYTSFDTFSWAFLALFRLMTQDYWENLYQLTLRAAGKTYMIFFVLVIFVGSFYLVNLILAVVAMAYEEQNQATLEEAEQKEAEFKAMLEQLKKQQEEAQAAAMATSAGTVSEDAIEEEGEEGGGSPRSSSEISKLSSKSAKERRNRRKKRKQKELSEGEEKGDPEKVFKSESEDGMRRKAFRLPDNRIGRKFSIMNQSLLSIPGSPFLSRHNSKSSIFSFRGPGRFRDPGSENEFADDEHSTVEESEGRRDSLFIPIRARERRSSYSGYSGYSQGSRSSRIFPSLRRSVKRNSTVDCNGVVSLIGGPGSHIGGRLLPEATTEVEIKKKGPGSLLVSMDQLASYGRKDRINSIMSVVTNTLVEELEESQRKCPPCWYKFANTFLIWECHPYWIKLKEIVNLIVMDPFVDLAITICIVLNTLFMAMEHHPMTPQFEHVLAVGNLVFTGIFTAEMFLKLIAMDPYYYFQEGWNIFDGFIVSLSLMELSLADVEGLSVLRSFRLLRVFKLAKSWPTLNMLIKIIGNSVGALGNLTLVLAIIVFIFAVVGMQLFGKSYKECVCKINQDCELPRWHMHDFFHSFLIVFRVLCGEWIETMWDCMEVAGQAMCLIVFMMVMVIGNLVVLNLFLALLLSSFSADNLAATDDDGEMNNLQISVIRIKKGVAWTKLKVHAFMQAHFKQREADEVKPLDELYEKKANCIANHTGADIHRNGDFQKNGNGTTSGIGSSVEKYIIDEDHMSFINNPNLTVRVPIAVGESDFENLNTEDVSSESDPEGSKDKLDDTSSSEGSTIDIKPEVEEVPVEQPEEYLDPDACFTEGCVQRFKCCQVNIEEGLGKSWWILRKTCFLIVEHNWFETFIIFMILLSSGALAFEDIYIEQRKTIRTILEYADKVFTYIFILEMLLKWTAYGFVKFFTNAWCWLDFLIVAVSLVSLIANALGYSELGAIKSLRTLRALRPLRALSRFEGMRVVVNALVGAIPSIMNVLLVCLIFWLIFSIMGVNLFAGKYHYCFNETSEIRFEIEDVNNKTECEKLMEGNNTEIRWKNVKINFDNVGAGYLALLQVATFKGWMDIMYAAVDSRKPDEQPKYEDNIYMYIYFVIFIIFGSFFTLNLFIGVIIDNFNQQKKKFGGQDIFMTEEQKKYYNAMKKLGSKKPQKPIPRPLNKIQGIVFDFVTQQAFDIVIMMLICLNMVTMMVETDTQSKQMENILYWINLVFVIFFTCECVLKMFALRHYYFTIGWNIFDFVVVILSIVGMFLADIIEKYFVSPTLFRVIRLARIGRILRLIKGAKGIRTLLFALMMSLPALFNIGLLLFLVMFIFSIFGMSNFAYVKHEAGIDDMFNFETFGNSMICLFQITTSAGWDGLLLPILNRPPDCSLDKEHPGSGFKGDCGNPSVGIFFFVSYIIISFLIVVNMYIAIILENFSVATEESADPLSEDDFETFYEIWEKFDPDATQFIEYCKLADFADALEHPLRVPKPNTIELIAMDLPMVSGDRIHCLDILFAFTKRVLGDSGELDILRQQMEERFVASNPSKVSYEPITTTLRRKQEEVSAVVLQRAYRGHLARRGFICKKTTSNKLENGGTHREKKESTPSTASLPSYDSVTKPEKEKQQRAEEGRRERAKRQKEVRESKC
Chain of hNav1.2 (Q99250 whole entry): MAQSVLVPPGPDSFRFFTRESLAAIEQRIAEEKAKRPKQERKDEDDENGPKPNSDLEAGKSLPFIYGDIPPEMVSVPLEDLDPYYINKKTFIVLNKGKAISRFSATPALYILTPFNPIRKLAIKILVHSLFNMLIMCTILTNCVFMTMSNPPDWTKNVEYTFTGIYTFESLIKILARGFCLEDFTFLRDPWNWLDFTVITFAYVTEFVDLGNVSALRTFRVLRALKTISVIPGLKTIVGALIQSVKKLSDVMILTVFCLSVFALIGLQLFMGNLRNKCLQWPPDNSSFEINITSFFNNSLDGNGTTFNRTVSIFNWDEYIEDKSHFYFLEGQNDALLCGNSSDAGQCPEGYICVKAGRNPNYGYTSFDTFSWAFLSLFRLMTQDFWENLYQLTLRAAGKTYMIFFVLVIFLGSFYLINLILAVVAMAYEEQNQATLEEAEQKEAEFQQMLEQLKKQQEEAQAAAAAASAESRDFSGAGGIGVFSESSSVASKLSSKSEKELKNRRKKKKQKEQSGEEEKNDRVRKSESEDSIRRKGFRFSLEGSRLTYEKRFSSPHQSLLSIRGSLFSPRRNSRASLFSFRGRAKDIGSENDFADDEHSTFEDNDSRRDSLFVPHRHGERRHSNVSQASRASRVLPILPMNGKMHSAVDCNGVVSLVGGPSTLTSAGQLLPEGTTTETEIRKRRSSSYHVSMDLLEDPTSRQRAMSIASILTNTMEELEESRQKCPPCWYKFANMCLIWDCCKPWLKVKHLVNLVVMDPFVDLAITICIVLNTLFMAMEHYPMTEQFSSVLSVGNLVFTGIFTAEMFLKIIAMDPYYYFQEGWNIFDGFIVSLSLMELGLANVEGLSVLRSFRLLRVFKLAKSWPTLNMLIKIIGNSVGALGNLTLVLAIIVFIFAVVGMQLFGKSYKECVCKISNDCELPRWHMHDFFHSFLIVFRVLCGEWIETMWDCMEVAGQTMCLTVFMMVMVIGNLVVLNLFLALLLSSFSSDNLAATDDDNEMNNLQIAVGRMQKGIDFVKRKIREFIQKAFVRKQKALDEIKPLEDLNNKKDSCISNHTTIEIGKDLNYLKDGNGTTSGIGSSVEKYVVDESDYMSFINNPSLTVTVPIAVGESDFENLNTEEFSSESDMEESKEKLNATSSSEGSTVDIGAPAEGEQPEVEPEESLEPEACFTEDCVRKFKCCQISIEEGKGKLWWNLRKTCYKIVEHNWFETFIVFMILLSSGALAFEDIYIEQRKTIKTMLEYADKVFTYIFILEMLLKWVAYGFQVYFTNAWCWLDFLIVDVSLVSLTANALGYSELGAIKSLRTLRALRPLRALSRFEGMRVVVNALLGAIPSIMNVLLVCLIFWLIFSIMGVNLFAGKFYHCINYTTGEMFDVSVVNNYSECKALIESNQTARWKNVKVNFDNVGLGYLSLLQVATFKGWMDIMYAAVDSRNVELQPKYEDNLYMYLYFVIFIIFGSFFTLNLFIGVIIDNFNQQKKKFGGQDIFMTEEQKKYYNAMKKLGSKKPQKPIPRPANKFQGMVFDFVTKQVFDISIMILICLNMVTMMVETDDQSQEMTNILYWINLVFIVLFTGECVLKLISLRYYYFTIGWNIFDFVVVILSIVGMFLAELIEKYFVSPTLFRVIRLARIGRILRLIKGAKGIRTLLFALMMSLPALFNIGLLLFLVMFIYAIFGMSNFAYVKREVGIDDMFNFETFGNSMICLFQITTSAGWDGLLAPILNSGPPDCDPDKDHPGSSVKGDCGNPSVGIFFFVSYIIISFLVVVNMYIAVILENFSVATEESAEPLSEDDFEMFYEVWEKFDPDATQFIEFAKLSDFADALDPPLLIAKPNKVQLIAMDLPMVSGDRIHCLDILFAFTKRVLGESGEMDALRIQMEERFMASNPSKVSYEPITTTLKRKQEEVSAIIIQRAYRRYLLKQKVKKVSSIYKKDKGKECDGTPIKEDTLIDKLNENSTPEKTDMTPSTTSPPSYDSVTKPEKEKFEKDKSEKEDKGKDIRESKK

For orientation: Emax means the size of the effect at its maximum, as opposed to the concentration needed. In the case of `CSCC[C@@H]1NC(=O)CNC(=O)[C@H](CCC(=O)O)NC(=O)[C@@H]2CSSC[C@H](NC(=O)[C@@H](N)Cc3ccc(O)cc3)C(=O)N[C@@H](CCC(N)=O)C(=O)N[C@@H](CCCCN)C(=O)N[C@@H](Cc3c[nH]c4ccccc34)C(=O)N[C@@H](CCSC)C(=O)N[C@@H](Cc3c[nH]c4ccccc34)C(=O)N[C@@H]([C@@H](C)O)C(=O)N[C@H]3CSSC[C@H](NC(=O)[C@H](C(C)C)NC1=O)C(=O)N[C@@H](CCCNC(=N)N)C(=O)N[C@@H](CC(C)C)C(=O)N[C@@H](Cc1c[nH]c4ccccc14)C(=O)N[C@H](C(=O)N[C@@H](CCCCN)C(=O)N[C@@H](CCCCN)C(=O)N[C@@H](CCCCN)C(=O)N[C@@H](CC(C)C)C(=O)N[C@@H](Cc1c[nH]c4ccccc14)C(=O)O)CSSC[C@H](NC(=O)[C@H](CCCCN)NC(=O)[C@H](CCCNC(=N)N)NC(=O)[C@H](CCC(=O)O)NC(=O)[C@H](CO)NC(=O)[C@H](CC(=O)O)NC3=O)C(=O)N2` [ProTX-II, reference compound], the maximum response (Emax) on hNav1.1, on hNav1.2, on hNav1.3, on hNav1.4, at hNav1.5 and on hNav1.6 (read-out: Fitted Emax hNav1.6) was 100% throughout. The IC50 on hNav1.6 (CHO cells, holding −60 mV, 0.1% BSA, ~22 °C, ± SEM, read-out: pIC50 hNav1.6 (converted)) is 31.6 nM. The ambulation entry in data set [1] (250 μg/100 μl peri-sciatic) was “No effect upon ambulation”. Besides, the “tolerability, peri-sciatic” value in data set [1] (250 μg/100 μl) was “well tolerated at the highest dose tested”. Further, the “abnormal proprioception of hind paws” value in data set [2] (setting [3]) was 2/7; in data set [2] (setting [4]), 0/7. Moreover, the abnormal stepping in data set [2] (setting [3]) was 2/7; in data set [2] (setting [4]), 0/7. Besides, the flaccidity in data set [2] (setting [3]) is given as 1/7; in data set [2] (setting [4]), 0/7. In addition, the hindlimb weakness in data set [2] (setting [3]) and in data set [2] (setting [4]) was 2/7 in each case. Moreover, in data set [2] (setting [5]), the abrasions and scabs entry was “Abrasions and scabs to the face, neck, and shoulders were observed in some”. For the same molecule, the “effect on motor function” value in data set [2] (setting [5]) is listed as “without any severe effect on motor function”. Further, the “motor effects just above efficacious dose” value in data set [2] (rat, IT, in words) is “exerts profound motor effects at doses just above the efficacious analgesic dose”. Moreover, the “motor effects above maximum tolerated IT dose” value in data set [2] (rat, higher than 2 μg/10 μl, in words) was “dose-related motor abnormalities that progressed from transient rear weakness, to paralysis of both the hind and forelimbs, slowing of respiration and death”. The “maximum tolerated dose (MTD), IT” value in data set [2] (rat, intrathecal) was 2 μg/10 μl. For the same molecule, the “lesions to the face and shoulders” value in data set [2] (rats, in words) was “often noticed”.
